1 compound from publication PMC11984691, “Identifying ENO1 as a protein target of chlorogenic acid to inhibit cellular senescence and prevent skin photoaging in mice” (Aging Cell, 2024) can be followed below.

One assay concerns the target T1, Enolase 1 (ENO1) C399A (Homo sapiens, UniProt P06733, C399A).
T1 construct: recombinant human ENO1-C399A, pET28a, His-tag
Put plainly: MicroScale Thermophoresis with purified mutant ENO1. The class given is binding. (In general: Microscale thermophoresis detects binding through changes in fluorescence in a small temperature gradient.)

In a further assay the target is T2, Enolase 1 (ENO1) (Homo sapiens, UniProt P06733).
T2 construct: recombinant wild-type human ENO1 (NP_001419.1), pET28a, His-tag
The assay is described as follows: MicroScale Thermophoresis with purified ENO1; also LC-MS/MS site mapping, CETSA, pull-down competition and enzyme activity inhibition. The class given is binding.

One may read the Kd as the concentration at which binding is half-saturated.

T1 sequence (P06733 2-434 C399A): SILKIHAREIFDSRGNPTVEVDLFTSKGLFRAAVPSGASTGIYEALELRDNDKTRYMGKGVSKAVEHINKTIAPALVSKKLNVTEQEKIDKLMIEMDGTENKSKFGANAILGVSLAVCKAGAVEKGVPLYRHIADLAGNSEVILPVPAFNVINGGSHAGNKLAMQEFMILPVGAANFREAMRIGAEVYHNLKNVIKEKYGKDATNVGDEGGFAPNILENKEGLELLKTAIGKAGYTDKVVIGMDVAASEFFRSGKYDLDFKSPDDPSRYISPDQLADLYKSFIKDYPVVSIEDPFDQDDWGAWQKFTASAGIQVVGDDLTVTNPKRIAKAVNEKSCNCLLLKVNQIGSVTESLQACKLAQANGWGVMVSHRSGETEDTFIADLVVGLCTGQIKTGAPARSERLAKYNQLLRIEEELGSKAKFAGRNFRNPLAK
T2 sequence (P06733 2-434): as the sequence (P06733 2-434 C399A) above, with A398C counted along it

For `O=C(/C=C/c1ccc(O)c(O)c1)O[C@@H]1C[C@](O)(C(=O)O)C[C@@H](O)[C@H]1O` [CGA, Chlorogenic acid], the Kd turned out to be 130 µM at Enolase 1 (ENO1) C399A and 20 µM at Enolase 1 (ENO1).
